# What was measured:
# [1] = Tests of efficiency of polyphosphonate compounds for preventing bonding of proteins; conditions: compared with diphosphonic esters, sulfonates, phosphates, carboxylates and diphosphates
# Description: One particular difficulty lies in identification of compounds with a particularly efficient behaviour for the required application.
# This TMADP compound has been synthesised in a single step using hydroxyethylidene biphosphonic acid (HEDP) and glycidyltrimethylammonium chloride. The reaction was done in DMSO previously conserved on a molecular sieve. After dissolution of HEDP (2 g; 14.5×10^−3 mol) at 50° C. in 30 ml of DMSO, the epoxyde (2.2 g; 14.5×10^−3 mol) is added and the temperature is increased to 110° C. for 24 hours. The DMSO is then evaporated at low pressure and the raw product is dissolved in a minimum amount of distilled water. The TMADP product is then chromatographed on a cation exchanger resin (DOWEX 50WX8-20/50 Mesh, H+form). The column is eluted with distilled water and the pure product is collected at a pH of between 3.0 and 3.5.
# [2] = Model of protection of a stainless steel plate against bonding of proteins
# From the text: A sufficient coverage quantity of TMADP molecules on this model is […] per nm^2 of plaque surface area.
SMILES,efficiency of the compound (result in words) [1],"contamination by proteins ([2]; TMADP concentration 2.86×10^−4 mol.I-1, 10 minutes incubation of the plaque (stainless steel plate))","contamination by proteins ([2]; TMADP concentration about 1.4×10^−4 mol.I-1, stainless steel plate)"
"C[N+](C)(C)CCCCCC(P(=O)(O)O)P(=O)(O)O [6-trimethylammoniohexyl-1,1-bisphosphonic acid]",particularly conclusive results,–,–
"CC(OCC(O)C[N+](C)(C)C)(P(=O)(O)O)P(=O)(O)O.[Cl-] (stereo not shown) [TMADP, 2,2-diphosphono-5-hydroxy-3-oxa-6-hexyltrimethylammonium (TMADP) chloride]",particularly conclusive results,less than 10%,about 15%
